Like-named read-outs stand apart in the source and are kept apart here.
How the values were obtained:
[1] = tested on: Blumeria graminis f. sp. hordei; synonym: Erysiphe graminis f. sp. hordei (ERYSGH); test: Barley powdery mildew (ERYSGH) whole-plant fungicidal test; assay type: in vivo; conditions: 1 Day Protectant
Procedure: (§1) All fungicides were evaluated using the aforementioned method for their activity vs. all target diseases, unless stated otherwise. Wheat leaf blotch and brown rust activity were also evaluated using track spray applications, in which case the fungicides were formulated as EC formulations, containing 0.1% Trycol 5941 in the spray solutions. Wheat plants (variety Yuma) were grown from seed in a greenhouse in 50% mineral soil/50% soil-less Metro mix until the first leaf was fully emerged, with 7-10 seedlings per pot. These plants were inoculated with an aqueous spore suspension of Septoria tritici either prior to or after fungicide treatments. After inoculation the plants were kept in 100% relative humidity (one day in a dark dew chamber followed by two to three days in a lighted dew chamber at 20° C.) to permit spores to germinate and infect the leaf. The plants were then transferred to a greenhouse set at 20° C. for disease to develop. When disease symptoms were fully expressed on the 1st leaves of untreated plants, infection levels were assessed on a scale of 0 to 100 percent disease severity. Percent disease control was calculated using the ratio of disease severity on treated plants relative to untreated plants. Barley seedlings (variety Harrington) were propagated in soil-less Metro mix, with each pot having 8 to 12 plants, and used in the test when first leaf was fully emerged. […]

[2] = tested on: Phakopsora pachyrhizi (PHAKPA); test: Asian soybean rust (PHAKPA) whole-plant fungicidal test
[3] = tested on: Glomerella lagenarium; anamorph: Colletotrichum lagenarium (COLLLA); test: Cucumber anthracnose (COLLLA) whole-plant fungicidal test; assay type: in vivo; conditions: 1 Day Protectant
Procedure: as §1, with “Cucumber” for “Barley”, “Bush Pickle)” for “Harrington)”, “one plant,” for “8 to 12 plants,”, “12 to 14 days old.” for “first leaf was fully emerged.”

[4] = tested on: Uncinula necator (UNCINE); test: Grape powdery mildew (UNCINE) whole-plant fungicidal test; assay type: in vivo; conditions: 1 Day Protectant
[5] = tested on: Cercospora beticola (CERCBE); test: Leaf spot of sugar beets (CERCBE) whole-plant fungicidal test; assay type: in vivo; conditions: sugar beet, 1 Day Protectant
Procedure: as §1, with “Sugar beet plants” for “Barley seedlings”, “HH88)” for “Harrington)”, “grown” for “propagated”, “mix and trimmed regularly” for “mix, with each pot having 8”, “maintain a uniform plant size prior to test.” for “12 plants, and used in the test when first leaf was fully emerged.”

[6] = tested on: Mycosphaerella graminicola; anamorph: Septoria tritici (SEPTTR); test: Leaf blotch of wheat (SEPTTR) whole-plant fungicidal test; assay type: in vivo; conditions: Zymoseptoria tritici, topical, low volume (track spray) application, 121.5 g/H
[7] = tested on: Venturia inaequalis (VENTIN); test: Apple scab (VENTIN) whole-plant fungicidal test; assay type: in vivo; conditions: 1 Day Protectant

`CCCC[C@@H]1[C@@H](Cc2ccc(C(F)(F)F)cc2)CCC[C@H](NC(=O)c2nccc(OC)c2OCOC(C)=O)C(=O)O[C@H]1C` [Compound 3] was tested, and the “Disease Control at 100 ppm ERYSGH 1DP” value [1] was “A (>70)”, the “Disease Control at 25 ppm PHAKPA 1DP” value ([2]; 1 Day Protectant) was “B (≦70)” and the “Disease Control at 25 ppm PHAKPA 3DC” value ([2]; 3 Day Curative) was “B (≦70)”. The “Disease Control at 100 ppm COLLLA 1DP” value [3] was “A (>70)”, the “Disease Control at 100 ppm UNCINE 1DP” value [4] was “A (>70)” and the “Disease Control at 100 ppm CERCBE 1DP” value [5] was “B (≦70)”. For the same molecule, the pest or weed control at 121.5 g/ha ([6]; 24 h, 1 Day Protectant, read-out: Low Volume activity at 121.5 g/H SEPTTR 1DP (% disease control rating)) was greater than 70%, the pest or weed control at 121.5 g/ha ([6]; 72 h, 3 Day Curative, read-out: Low Volume activity at 121.5 g/H SEPTTR 3DC (% disease control rating)) was greater than 70% and the “Disease Control at 100 ppm VENTIN 1DP” value [7] was “A (>70)”.

— patent US20150322051A1, “Macrocyclic picolinamides as fungicides” (Dow AgroSciences LLC, priority 2014, published 2015)
